PMC10485906, “Development of a Dihydroquinoline–Pyrazoline GluN2C/2D-Selective Negative Allosteric Modulator of the N-Methyl-D-aspartate Receptor” (ACS Chemical Neuroscience, 2023)
Read-outs that look alike come from different tables or passages of the source.

Key:
GluN1/GluN2A [1] = biological target: T1, GluN1/GluN2A (Rattus norvegicus, UniProt P35439+Q00959); assay: Two-electrode voltage-clamp recordings, Xenopus laevis oocytes, GluN1/GluN2A; assay type: cell-based; conditions: 100 μM glutamate, 30 μM glycine; for IC50: read-out: IC50 GluN2A [95% CI]; for remaining activity at 30 µM: 30 μM test compound, mean ± SEM, read-out: I 30 μM / I control GluN2A
T1 construct: expressed in transfected cells; host or cells: Xenopus laevis oocytes (cRNA injection)
Protocol: (§1) All target compounds were evaluated for NMDAR antagonism using two-electrode voltage-clamp recordings from Xenopus laevis oocytes coexpressing recombinant GluN1 and GluN2A-D subunits (Table 1).[32],[42],[33] All analogues were assessed as either a racemic (2b, 2e–2r) or diastereomeric (2d) mixture to simplify purification and streamline in vitro analysis. […] Moreover, as illustrated by the significant loss of NMDAR activity observed with nitrile 2e, the DQP allosteric site necessitated an H-bond donor/acceptor relationship at the carboxylate position. […] The loss of NMDAR activity observed with the trifluoro analogue 2j (Table S1) reinforced the necessity for an H-bond donor/acceptor relationship to maintain allosteric binding and established that fluorine substitution alone is ineffective. […] A single methyl substitution of the amide in compound 2q improved selectivity against GluN2A and had similar potency as 2a, whereas dual methyl substitution reduced potency (2r). We expect that this is likely due to the ability of the […] of the amide to accept hydrogen bonds while the amide can readily donate a proton.
(§2) Unfertilized Xenopus laevis oocytes were obtained from Ecocyte (Austin, TX), or ovaries were purchased from Xenopus 1 (Dexter, MI) and oocytes prepared as previously described.[42],[47] Two-electrode voltage-clamp recordings were performed on oocytes expressing recombinant rat GluN1/GluN2A, GluN1/GluN2B, GluN1/GluN2C, or GluN1/GluN2D. cDNAs for rat GluN1-1a (referred to as GluN1; NCBI Reference Sequence NM_017010.2), GluN2A (NM_012573.4), GluN2B (NM_012574.1), GluN2C (NM_012575.3), and GluN2D (NM_022797.2) were provided by Dr. S. Heinemann from the Salk Institute, Dr. S. Nakanishi from Kyoto University, and Dr. P. Seeburg from the University of Heidelberg. Oocyte isolation, cRNA synthesis, and cRNA injections were performed as previously described.[32],[33],[47] Briefly, Xenopus laevis oocytes were injected with 5–10 ng of cRNA in RNase-free water with the GluN1:GluN2 ratio ranging from 1:1 to 1:5. Oocytes were incubated at 15–19 °C in Barth’s solution consisting of (in mM) 88 NaCl, 1 KCl, 2.4 NaHCO3, 10 HEPES, 0.82 MgSO4, 0.33 Ca(NO3)2, and 0.41 CaCl2 supplemented with 100 μg/mL gentamycin, 40 μg/mL streptomycin, and 50 μg/mL penicillin. Recordings were performed 2–4 days after injection with extracellular recording solution containing (in mM) 90 NaCl, 1 KCl, 10 HEPES, 0.5 BaCl2, and 0.01 EDTA at pH 7.4 adjusted with NaOH. To prevent a gradual increase in current response over the course of the experiment, some oocytes expressing GluN1/GluN2A were injected with 20–50 nL of 2–50 mM K-BAPTA. Concentration–response curves for test compounds were generated by applying a maximally effective concentration of glutamate (100 μM) and glycine (30 μM), followed by glutamate and glycine with variable concentrations of test compounds up to 30 μM. The test compounds were prepared as 20 mM stock solutions in DMSO and diluted to the final concentration in recording solution. The DMSO content was 0.05–0.5% (v/v). […] Methods for off-target analysis are given in the Supporting Information.
(§3) Confidence intervals were determined for the log(IC50). The time course of relaxation during inhibitor application or deactivation following rapid removal of NMDA or glutamate was fitted by the equation [drawing 5] 2

GluN1/GluN2B [2] = biological target: T2, GluN1/GluN2B (Rattus norvegicus, UniProt P35439+Q00960); assay: Two-electrode voltage-clamp recordings, Xenopus laevis oocytes, GluN1/GluN2B; assay type: cell-based; conditions: 100 μM glutamate, 30 μM glycine; for remaining activity at 30 µM: 30 μM test compound, mean ± SEM, read-out: I 30 μM / I control GluN2B; for IC50: read-out: IC50 GluN2B [95% CI]
T2 construct: GluN2B (NM_012574.1), GluN2C (NM_012575.3), and GluN2D (NM_022797.2) were provided by; expressed in transfected cells; host or cells: Xenopus laevis oocytes (cRNA injection)
Protocol: as §1, §2, §3

GluN1/GluN2C [3] = biological target: GluN1/GluN2C (Rattus norvegicus, UniProt P35439+Q00961); assay: Two-electrode voltage-clamp recordings, Xenopus laevis oocytes, GluN1/GluN2C; assay type: cell-based; parameters: GluN2B (NM_012574.1), GluN2C (NM_012575.3), and GluN2D (NM_022797.2) were provided by; expressed in transfected cells; host or cells: Xenopus laevis oocytes (cRNA injection); conditions: 100 μM glutamate, 30 μM glycine; for IC50: read-out: IC50 GluN2C [95% CI]; for remaining activity at 30 µM: 30 μM test compound, mean ± SEM, read-out: I 30 μM / I control GluN2C
Protocol: as §1, §2, §3

GluN1/GluN2C [4] = biological target: GluN1/GluN2C (Rattus norvegicus, UniProt Q00961); assay: as above; assay type: cell-based; parameters: GluN2B (NM_012574.1), GluN2C (NM_012575.3), and GluN2D (NM_022797.2) were provided by; expressed in transfected cells; host or cells: Xenopus laevis oocytes (cRNA injection); conditions: 100 μM glutamate, 30 μM glycine, mean ± SEM
Protocol: as §1, §2, §3

GluN1/GluN2D [5] = biological target: GluN1/GluN2D (Rattus norvegicus, UniProt P35439+Q62645); assay: Two-electrode voltage-clamp recordings, Xenopus laevis oocytes, GluN1/GluN2D; assay type: cell-based; parameters: GluN2B (NM_012574.1), GluN2C (NM_012575.3), and GluN2D (NM_022797.2) were provided by; expressed in transfected cells; host or cells: Xenopus laevis oocytes (cRNA injection); conditions: 100 μM glutamate, 30 μM glycine; for IC50: read-out: IC50 GluN2D [95% CI]; for remaining activity at 30 µM: 30 μM test compound, mean ± SEM, read-out: I 30 μM / I control GluN2D
Protocol: as §1, §2, §3

GluN1/GluN2D [6] = biological target: GluN1/GluN2D (Rattus norvegicus, UniProt Q62645); assay: as above; assay type: cell-based; parameters: GluN2B (NM_012574.1), GluN2C (NM_012575.3), and GluN2D (NM_022797.2) were provided by; expressed in transfected cells; host or cells: Xenopus laevis oocytes (cRNA injection); conditions: for Selectivity 2A IC50 / 2D IC50: GluN2D over GluN2A; for Selectivity 2B IC50 / 2D IC50: GluN2D over GluN2B
Protocol: as §1, §2, §3

GluN1/GluN2A [7] = biological target: T3, GluN1/GluN2A (Rattus norvegicus, UniProt Q00959); assay: Two-electrode voltage-clamp recordings, Xenopus laevis oocytes, GluN1/GluN2A; assay type: cell-based; conditions: tested at 3 μM; 100 μM glutamate, 30 μM glycine; mean ± SEM
T3 construct: expressed in transfected cells; host or cells: Xenopus laevis oocytes (cRNA injection)
Protocol: as §1, §2, §3

GluN1/GluN2B [8] = biological target: T4, GluN1/GluN2B (Rattus norvegicus, UniProt Q00960); assay: Two-electrode voltage-clamp recordings, Xenopus laevis oocytes, GluN1/GluN2B; assay type: cell-based; conditions: tested at 3 μM; 100 μM glutamate, 30 μM glycine; mean ± SEM
T4 construct: GluN2B (NM_012574.1), GluN2C (NM_012575.3), and GluN2D (NM_022797.2) were provided by; expressed in transfected cells; host or cells: Xenopus laevis oocytes (cRNA injection)
Protocol: as §1, §2, §3

[9] = Brain homogenate tissue binding and stability (RED device); assay type: in vitro ADME, mouse
Protocol: Carbamazepine (Apin Chemicals) served as a positive control for brain tissue binding. Test compounds and the positive control were initially dissolved in DMSO to make 1 mM stock solutions. […] A rapid equilibrium dialysis (RED) device (Thermo Scientific) containing a dialysis membrane with a molecular weight cutoff of 8000 Da was used to assess tissue binding and metabolic stability. […] The test compounds and positive control (200 μL of 5 μM solution) were added to the red chamber of the dialysis insert, while the white chamber was filled with dialysis buffer (350 μL). The RED device was then sealed with an adhesive film and incubated at 37 °C with shaking (300 rpm) for 4 h. For the initial time point (t = 0 min), 50 μL aliquots of test compounds and the positive control were added to 96-deep well plates (0.7 mL per well) and quenched with 400 μL of MeCN. Following dialysis, another 50 μL aliquot of the tested samples was removed from each well (brain homogenate and buffer) and diluted with an equal volume of the opposite matrix to nullify any matrix effects. […] The supernatant (100 μL) was subsequently transferred to 96-deep well plates for LC-MS/MS analysis. Prodrug metabolism and 2i concentrations were determined by fit-for-purpose LC-MS/MS methods on a nine-point calibration curve ranging from 0.12 to 7.5 μM.

T2 sequence (Q00960 27-1482, other chains not shown): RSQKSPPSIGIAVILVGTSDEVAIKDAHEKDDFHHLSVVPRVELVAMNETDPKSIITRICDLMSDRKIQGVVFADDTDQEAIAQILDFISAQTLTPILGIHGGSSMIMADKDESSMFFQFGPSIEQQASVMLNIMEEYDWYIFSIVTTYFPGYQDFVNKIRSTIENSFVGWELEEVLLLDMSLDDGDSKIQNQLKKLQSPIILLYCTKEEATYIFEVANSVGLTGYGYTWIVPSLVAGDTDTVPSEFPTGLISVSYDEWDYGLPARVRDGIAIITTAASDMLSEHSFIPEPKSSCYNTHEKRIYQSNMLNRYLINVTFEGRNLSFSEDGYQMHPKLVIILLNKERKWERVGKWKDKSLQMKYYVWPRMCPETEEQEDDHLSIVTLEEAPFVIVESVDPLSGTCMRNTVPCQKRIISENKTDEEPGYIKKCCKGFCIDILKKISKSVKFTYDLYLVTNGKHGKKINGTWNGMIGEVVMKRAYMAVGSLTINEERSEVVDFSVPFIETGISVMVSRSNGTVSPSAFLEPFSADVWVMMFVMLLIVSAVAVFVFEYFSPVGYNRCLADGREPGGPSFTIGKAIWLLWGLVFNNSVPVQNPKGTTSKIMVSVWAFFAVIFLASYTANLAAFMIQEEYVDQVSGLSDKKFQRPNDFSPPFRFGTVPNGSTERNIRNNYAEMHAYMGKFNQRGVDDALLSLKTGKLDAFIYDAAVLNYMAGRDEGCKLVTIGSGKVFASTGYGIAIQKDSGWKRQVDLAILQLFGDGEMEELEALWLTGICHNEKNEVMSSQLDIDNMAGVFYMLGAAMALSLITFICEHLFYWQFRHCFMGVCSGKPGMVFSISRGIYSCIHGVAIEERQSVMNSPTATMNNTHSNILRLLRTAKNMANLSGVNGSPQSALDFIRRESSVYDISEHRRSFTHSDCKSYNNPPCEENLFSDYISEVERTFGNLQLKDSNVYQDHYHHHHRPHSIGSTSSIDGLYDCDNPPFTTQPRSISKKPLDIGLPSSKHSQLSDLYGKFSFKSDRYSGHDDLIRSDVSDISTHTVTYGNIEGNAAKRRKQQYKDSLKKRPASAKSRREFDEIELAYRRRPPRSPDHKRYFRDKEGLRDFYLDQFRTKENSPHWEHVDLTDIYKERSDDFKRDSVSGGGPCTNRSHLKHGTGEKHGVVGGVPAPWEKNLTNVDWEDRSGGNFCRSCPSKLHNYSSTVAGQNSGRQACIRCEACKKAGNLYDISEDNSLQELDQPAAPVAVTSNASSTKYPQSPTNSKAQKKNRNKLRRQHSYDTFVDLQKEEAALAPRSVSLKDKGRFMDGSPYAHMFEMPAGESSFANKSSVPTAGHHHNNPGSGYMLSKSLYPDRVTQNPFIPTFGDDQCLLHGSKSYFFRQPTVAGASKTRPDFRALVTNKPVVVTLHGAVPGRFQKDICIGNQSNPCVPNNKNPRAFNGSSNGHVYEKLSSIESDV
T1 sequence (Q00959 23-1464, other chains not shown): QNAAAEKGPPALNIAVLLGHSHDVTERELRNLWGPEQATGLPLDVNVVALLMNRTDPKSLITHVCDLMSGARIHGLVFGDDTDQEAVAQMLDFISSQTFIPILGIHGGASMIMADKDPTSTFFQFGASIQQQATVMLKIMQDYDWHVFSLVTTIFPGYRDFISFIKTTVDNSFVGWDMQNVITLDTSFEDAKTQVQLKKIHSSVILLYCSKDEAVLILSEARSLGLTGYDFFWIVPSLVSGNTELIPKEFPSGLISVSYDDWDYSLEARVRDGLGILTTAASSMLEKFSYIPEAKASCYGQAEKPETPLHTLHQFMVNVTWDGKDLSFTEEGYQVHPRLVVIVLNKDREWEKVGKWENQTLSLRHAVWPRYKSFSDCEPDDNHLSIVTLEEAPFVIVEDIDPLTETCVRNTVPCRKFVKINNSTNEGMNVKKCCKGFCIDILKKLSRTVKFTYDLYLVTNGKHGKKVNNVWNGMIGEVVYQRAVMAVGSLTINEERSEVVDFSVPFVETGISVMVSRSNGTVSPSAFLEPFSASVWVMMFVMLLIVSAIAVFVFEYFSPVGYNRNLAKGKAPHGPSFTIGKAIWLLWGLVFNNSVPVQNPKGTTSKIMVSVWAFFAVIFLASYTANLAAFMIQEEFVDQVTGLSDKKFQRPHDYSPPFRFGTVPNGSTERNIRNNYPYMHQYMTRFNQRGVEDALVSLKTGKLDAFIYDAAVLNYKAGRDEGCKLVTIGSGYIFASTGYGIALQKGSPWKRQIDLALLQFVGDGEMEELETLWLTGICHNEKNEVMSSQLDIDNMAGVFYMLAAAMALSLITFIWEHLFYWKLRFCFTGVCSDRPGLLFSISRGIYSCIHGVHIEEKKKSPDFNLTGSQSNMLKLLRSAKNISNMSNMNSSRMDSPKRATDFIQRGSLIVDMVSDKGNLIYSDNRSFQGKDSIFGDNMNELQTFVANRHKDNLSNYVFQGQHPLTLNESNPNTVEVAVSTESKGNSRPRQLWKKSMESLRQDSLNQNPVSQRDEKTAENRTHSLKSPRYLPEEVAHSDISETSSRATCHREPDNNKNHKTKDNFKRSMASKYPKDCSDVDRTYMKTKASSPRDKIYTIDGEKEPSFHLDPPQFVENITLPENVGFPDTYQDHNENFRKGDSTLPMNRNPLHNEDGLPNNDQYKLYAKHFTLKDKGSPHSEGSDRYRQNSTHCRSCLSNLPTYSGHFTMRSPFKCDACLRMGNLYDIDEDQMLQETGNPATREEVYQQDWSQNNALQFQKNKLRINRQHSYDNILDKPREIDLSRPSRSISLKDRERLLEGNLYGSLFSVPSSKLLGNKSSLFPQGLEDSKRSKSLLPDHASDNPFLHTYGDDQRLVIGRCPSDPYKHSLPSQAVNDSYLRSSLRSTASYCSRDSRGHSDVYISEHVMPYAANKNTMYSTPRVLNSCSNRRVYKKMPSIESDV
GluN1/GluN2C (Rattus norvegicus, UniProt P35439+Q00961), sequence (Q00961 20-1237, other chains not shown): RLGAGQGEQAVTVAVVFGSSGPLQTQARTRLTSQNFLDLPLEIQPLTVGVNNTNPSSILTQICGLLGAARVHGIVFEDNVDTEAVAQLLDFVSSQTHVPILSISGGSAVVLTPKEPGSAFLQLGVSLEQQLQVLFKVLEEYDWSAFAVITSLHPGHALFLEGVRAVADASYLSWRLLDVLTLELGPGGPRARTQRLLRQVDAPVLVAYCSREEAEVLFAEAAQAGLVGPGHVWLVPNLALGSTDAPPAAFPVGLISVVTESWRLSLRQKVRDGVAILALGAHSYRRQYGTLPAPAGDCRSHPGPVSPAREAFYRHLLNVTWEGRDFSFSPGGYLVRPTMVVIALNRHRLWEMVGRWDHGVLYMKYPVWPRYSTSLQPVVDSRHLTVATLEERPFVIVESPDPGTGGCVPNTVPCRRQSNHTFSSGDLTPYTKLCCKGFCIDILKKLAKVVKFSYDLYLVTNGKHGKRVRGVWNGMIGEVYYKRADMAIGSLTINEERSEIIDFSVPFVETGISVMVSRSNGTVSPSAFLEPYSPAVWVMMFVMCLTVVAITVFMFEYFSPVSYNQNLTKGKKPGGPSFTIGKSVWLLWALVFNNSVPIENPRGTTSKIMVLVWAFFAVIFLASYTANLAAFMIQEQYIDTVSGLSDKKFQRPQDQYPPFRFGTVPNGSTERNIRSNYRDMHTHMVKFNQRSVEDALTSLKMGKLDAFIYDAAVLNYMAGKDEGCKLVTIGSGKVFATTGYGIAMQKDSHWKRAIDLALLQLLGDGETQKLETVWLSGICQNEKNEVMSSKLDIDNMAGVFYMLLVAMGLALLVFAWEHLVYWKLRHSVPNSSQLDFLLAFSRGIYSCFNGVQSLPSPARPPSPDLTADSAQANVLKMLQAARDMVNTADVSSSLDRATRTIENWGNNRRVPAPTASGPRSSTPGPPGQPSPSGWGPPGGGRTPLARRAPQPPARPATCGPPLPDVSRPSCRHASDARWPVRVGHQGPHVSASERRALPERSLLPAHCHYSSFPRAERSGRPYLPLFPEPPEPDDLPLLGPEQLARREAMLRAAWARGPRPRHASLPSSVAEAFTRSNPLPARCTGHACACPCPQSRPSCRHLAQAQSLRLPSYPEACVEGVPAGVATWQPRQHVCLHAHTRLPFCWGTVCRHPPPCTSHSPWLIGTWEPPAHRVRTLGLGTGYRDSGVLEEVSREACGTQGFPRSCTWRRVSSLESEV
GluN1/GluN2C (Rattus norvegicus, UniProt Q00961), sequence (Q00961 20-1237, other chains not shown): as above

Row | SMILES | IC50 (GluN1/GluN2A [1]) [µM] | remaining activity at 30 µM (GluN1/GluN2B [2]) [%] | IC50 (GluN1/GluN2B [2]) [µM] | IC50 (GluN1/GluN2C [3]) [µM] | IC50 (GluN1/GluN2D [5]) [µM] | Selectivity 2A IC50 / 2D IC50 (GluN1/GluN2D [6]) [fold] | Selectivity 2B IC50 / 2D IC50 (GluN1/GluN2D [6]) [fold] | remaining activity at 30 µM (GluN1/GluN2A [1]) [%] | remaining activity at 30 µM (GluN1/GluN2C [3]) [%] | remaining activity at 30 µM (GluN1/GluN2D [5]) [%] | further results
1 | O=C(O)CCCC(=O)N1N=C(c2c(-c3ccc(Cl)cc3)c3ccccc3[nH]c2=O)CC1c1ccc(Cl)cc1 (stereo not shown) [2b] | 25 | 57 ± 2.6 | 37 | 0.9 | 0.64 | 39 | 58 | – | – | – | I / I control GluN2C (GluN1/GluN2C [4]; tested at 10 μM (footnote b)): 13 ± 1.3 ^b (1,8) %; I / I control GluN2D (GluN1/GluN2D [6]; tested at 10 μM (footnote b), 100 μM glutamate, 30 μM glycine, mean ± SEM): 5.9 ± 1.6 ^b (1,8) %
2 | N[C@@H](CCC(=O)N1N=C(c2c(-c3ccc(Cl)cc3)c3ccccc3[nH]c2=O)CC1c1ccc(Cl)cc1)C(=O)O (stereo partly shown) [2d] | 15 | 48 ± 4 | 21 | 2.1 | 1.1 | 14 | 19 | 36 ± 5.2 | 16 ± 5 | 3.1 ± 0.59 | –
3 | N#CCCC(=O)N1N=C(c2c(-c3ccc(Cl)cc3)c3ccccc3[nH]c2=O)CC1c1ccc(Cl)cc1 (stereo not shown) [2e] | – | 82 ± 2.4 | – | 99 | 28 | – | – | 94 ± 1.4 | 67 ± 2.6 | 46 ± 5 | –
4 | O=C(CCc1nnn[nH]1)N1N=C(c2c(-c3ccc(Cl)cc3)c3ccccc3[nH]c2=O)CC1c1ccc(Cl)cc1 (stereo not shown) [2h] | 22 | 48 ± 1.9 | 29 | 0.57 | 0.52 | 42 | 56 | 29 ± 4.1 | 2.3 ± 0.5 | 2.4 ± 0.56 | –
5 | O=C(N1N=C(c2c(-c3ccc(Cl)cc3)c3ccccc3[nH]c2=O)CC1c1ccc(Cl)cc1)C(F)(F)F (stereo not shown) [2j] | – | 86 ± 2.3 | – | – | – | – | – | 96 ± 2.1 | 100 ± 2.2 | 86 ± 2.8 | –
6 | O=C(O)CC(F)(F)C(=O)N1N=C(c2c(-c3ccc(Cl)cc3)c3ccccc3[nH]c2=O)C[C@@H]1c1ccc(Cl)cc1 [(R)-(+)-2i] | – | – | – | 0.51 | 0.31 | – | – | – | – | – | I3 μM/Icontrol GluN2A (GluN1/GluN2A [7]): 103 ± 2.5 (3, 16) %; I3 μM/Icontrol GluN2B (GluN1/GluN2B [8]): 99 ± 2.4 (3, 12) %; I3 μM/Icontrol GluN2C (GluN1/GluN2C [4]; tested at 3 μM): 52 ± 2.1 (2, 12) %; I3 μM/Icontrol GluN2D (GluN1/GluN2D [6]; tested at 3 μM, 100 μM glutamate, 30 μM glycine, mean ± SEM): 42 ± 3.5 (2, 13) %
7 | NC(=O)N1c2ccccc2C=Cc2ccccc21 [Carbamazepine, reference compound] | – | – | – | – | – | – | – | – | – | – | fraction unbound at 4 h, 5 µM ([9]; C57BL/6, mouse, brain homogenate (4 times diluted), pH 7.4, mouse brain tissue binding (free fraction in brain), read-out: % Unbound): 0.135; fraction unbound at 4 h, 5 µM ([9]; C57BL/6, mouse, brain homogenate (4 times diluted), pH 7.4, mouse brain tissue binding, RED, 4 h, read-out: % Bound Mean ± SD (converted)): 0.135; fraction unbound at 4 h, 5 µM ([9]; C57BL/6, mouse, brain homogenate (4 times diluted), pH 7.4, mouse brain tissue binding, RED, 4 h, read-out: % Bound R1 (converted)): 0.131; fraction unbound at 4 h, 5 µM ([9]; C57BL/6, mouse, brain homogenate (4 times diluted), pH 7.4, mouse brain tissue binding, RED, 4 h, read-out: % Bound R2 (converted)): 0.14; fraction unbound at 4 h, 5 µM ([9]; C57BL/6, mouse, brain homogenate (4 times diluted), pH 7.4, mouse brain tissue binding, read-out: fu): 0.135; remaining at 4 h, 5 µM ([9]; C57BL/6, mouse, brain homogenate (4 times diluted), pH 7.4, starting concentration 5 μM, 4 h): 105%; recovery at 4 h, 5 μM ([9]; C57BL/6, pH 7.4, mouse brain tissue binding, RED, 4 h): 91%
